Test: ring-closing metathesis (C=C bond) of side-chain olefins, second-generation Grubbs catalyst 20 mol %, under argon, 2 h
Settings: CH2Cl2, 20.0 mM, 25.0 °C

COC(=O)C1(NC(=O)[C@H](CC(C)C)NC(=O)[C@H](CC(C)C)NC(=O)C2(NC(=O)[C@H](CC(C)C)NC(=O)[C@H](CC(C)C)NC(=O)[C@@H]3COCCCC=CCO[C@H]4C[C@@H](C(=O)N3)N(C(=O)OC(C)(C)C)C4)CCCC2)CCCC1
ring closure, isolated yield (from C=CCCCOC[C@H](NC(=O)[C@@H]1C[C@H](OCC=C)CN1C(=O)OC(C)(C)C)C(=O)N[C@@H](CC(C)C)C(=O)N[C@@H](CC(C)C)C(=O)NC1(C(=O)N[C@@H](CC(C)C)C(=O)N[C@@H](CC(C)C)C(=O)NC2(C(=O)OC)CCCC2)CCCC1, 15-membered ring, 2.0 h): 93%

COC(=O)C1(NC(=O)[C@H](CC(C)C)NC(=O)[C@H](CC(C)C)NC(=O)C2(NC(=O)[C@H](CC(C)C)NC(=O)[C@H](CC(C)C)NC(=O)[C@@H]3COCC=CCO[C@H]4C[C@@H](C(=O)N3)N(C(=O)OC(C)(C)C)C4)CCCC2)CCCC1
ring closure, isolated yield (from C=CCOC[C@H](NC(=O)[C@@H]1C[C@H](OCC=C)CN1C(=O)OC(C)(C)C)C(=O)N[C@@H](CC(C)C)C(=O)N[C@@H](CC(C)C)C(=O)NC1(C(=O)N[C@@H](CC(C)C)C(=O)N[C@@H](CC(C)C)C(=O)NC2(C(=O)OC)CCCC2)CCCC1, 13-membered ring): 0%

COC(=O)[C@@H]1COCC=CCO[C@@H]2C[C@@H](C(=O)N1)N(C(=O)OC(C)(C)C)C2
ring closure, isolated yield (from C=CCOC[C@H](NC(=O)[C@@H]1C[C@@H](OCC=C)CN1C(=O)OC(C)(C)C)C(=O)OC, 13-membered ring): 0%

COC(=O)C1(NC(=O)[C@H](CC(C)C)NC(=O)[C@H](CC(C)C)NC(=O)[C@@H]2COCCCC=CC[C@]3(CCCN3C(=O)OCc3ccccc3)C(=O)N[C@@H](CC(C)C)C(=O)N[C@@H](CC(C)C)C(=O)N2)CCCC1
ring closure, isolated yield (from C=CCCCOC[C@H](NC(=O)[C@H](CC(C)C)NC(=O)[C@H](CC(C)C)NC(=O)[C@]1(CC=C)CCCN1C(=O)OCc1ccccc1)C(=O)N[C@@H](CC(C)C)C(=O)N[C@@H](CC(C)C)C(=O)NC1(C(=O)OC)CCCC1, 18-membered ring, 2.0 h): 96%

COC(=O)[C@@H]1COCC=CCO[C@H]2C[C@@H](C(=O)N1)N(C(=O)OC(C)(C)C)C2 [Boc-cis-Hyp(OAllyl)-Ser(OAllyl)-OMe (cis-4-hydroxy-L-Pro)]
ring closure, isolated yield (from C=CCOC[C@H](NC(=O)[C@@H]1C[C@H](OCC=C)CN1C(=O)OC(C)(C)C)C(=O)OC, 13-membered ring, 2.0 h): 55%

Reference: article PMC7594088
